Reference: patent US20150231199A1, “PEPTIDES AND THEIR USES” (priority 2012, published 2015)
In brackets after ≈: the same amount, converted by molar mass. Like-named read-outs stand apart in the source and are kept apart here. Positions of bridges follow the written chain, without caps; N, C: chain ends. Residues, ends and D or L forms follow the SMILES beside them. Chains are numbered I, II in the order given. *: point of attachment. Lauroyl = CCCCCCCCCCCC(=O)*; Decanoyl = CCCCCCCCCC(=O)*; Octanoyl = CCCCCCCC(=O)*; Hexanoyl = CCCCCC(=O)*; Butyryl = CCCC(=O)*

What was measured:
[1] = tested on: Methicillin-resistant Staphylococcus aureus (MRSA); type: cell-based
Procedure: (§1) V2-dimer and all lipopeptides (FIG. 1A) used in this study were purchased from Mimotopes. All peptides were prepared by dissolving in sterile water to make 1000 μg/mL stock solutions. Minimum Inhibitory Concentration (MIC) determination was carried out in Mueller Hinton Broth (MHB) using the broth macro-dilution method as described by the Clinical and Laboratory Standards Institute (CLSI). Then, cation-adjusted MHB (CA-MHB) was used to prepare serial two fold dilutions of the compounds in test tubes. The concentration of the inoculums suspension was also adjusted to approximately 5×10^5 Colony Forming Units (CFU)/mL using MHB. Bacteria were incubated with the compounds for 24 hours at 35° C. prior to reading. In this study, Gram-positive strains used were Staphylococcus aureus DM4001 and Methicillin-resistant Staphylococcus aureus (MRSA) DM9808. Gram-negative strains used were Klebsiella pneumoniae DM4299, Pseudomonas aeruginosa ATCC23155 and Escherichia coli ATCC27922.
(§2) Methods used are as described in Example 1 above.

Pseudomonas aeruginosa = type: cell-based
Procedure: as §1, §2

Staphylococcus aureus = type: cell-based
Procedure: as §1, §2

[2] = tested on: Klebsiella pneumoniae DM4299; type: cell-based
Procedure: as §1

[3] = tested on: Escherichia coli ATCC27922; type: cell-based
Procedure: as §1

[4] = tested on: red blood cells (RBCs) of New Zealand white rabbits; experiment: in vitro; type: cell-based, rabbit
Procedure: Fresh red blood cells (RBCs) of New Zealand white rabbits were used for this experiment. The RBCs obtained were centrifuged at 3000 rpm for 10 min. Supernatant was removed and washed twice with sterile PBS Buffer (20 mM, 100 mM NaCl, pH 7). The RBCs were further diluted to 8% stock solution in PBS. Peptides were dissolved in PBS with desired stock concentrations. When compounds were mixed with RBCs, desired concentration of 4% RBCs was obtained. For C14V2D and C16V2D, they were dissolved in Dimethylformamide ([…]; DMF) with desired stock concentrations. When compounds were mixed with RBCs, desired concentration of 4% RBCs and 0.5% DMF was obtained. DMF concentration of <1% was used as it had negligible hemolytic activity on RBCs. The mixtures were added to 1.5 mL centrifuge tubes and incubated at 37° C. for 1 h. After incubation, the blood was centrifuged at 3000 rpm for 3 min at 4° C. 100 μL of the supernatant was transferred into transparent 96-well plate. The absorbance was measured at 576 nm using a microplate reader (TECAN Infinite 200M Pro). 2% Triton X-100 was used as positive control. PBS was used as negative controls. The amount of hemoglobin released was calculated using the following equation: […]

SMILES | MIC [1] [µM] | MIC (Pseudomonas aeruginosa) [µM] | MIC (Staphylococcus aureus) [µM] | MIC [2] [µM] | MIC [3] [µM] | HC10 [4] [µg/mL] | HC10 ([4]; red cells of rabbit, 1 h) [µg/mL]
CCCCCCCCCC(=O)N[C@@H](CCCNC(=N)N)C(=O)NCC(=O)N[C@@H](CCCNC(=N)N)C(=O)N[C@@H](CCCCN)C(=O)NCC(=O)NCC(=O)N[C@@H](CCCNC(=N)N)C(=O)N[C@@H](CCCNC(=N)N)C(=O)NCCCC[C@H](NC(=O)[C@H](CCCNC(=N)N)NC(=O)[C@H](CCCNC(=N)N)NC(=O)CNC(=O)CNC(=O)[C@H](CCCCN)NC(=O)[C@H](CCCNC(=N)N)NC(=O)CNC(=O)[C@H](CCCNC(=N)N)NC(=O)CCCCCCCCC)C(=O)N[C@@H](CCCCN)C(=O)O [Peptide C10-G2D, (C9H19—CO—NH—RGRKGGRR)2KK] (I: Decanoyl-RGRKGGRRKK-OH / II: Decanoyl-RGRKGGRR; amide I:9-II:C; N-terminus and C-terminus assumed) | 2.57 (≈ 6.25 µg/mL) | 2.57 (≈ 6.25 µg/mL) | 2.51 (≈ 6.1 µg/mL) | 2.57 (≈ 6.25 µg/mL) |  |  | 
CCCC(=O)N[C@@H](CCCNC(=N)N)C(=O)NCC(=O)N[C@@H](CCCNC(=N)N)C(=O)N[C@@H](CCCCN)C(=O)NCC(=O)NCC(=O)N[C@@H](CCCNC(=N)N)C(=O)N[C@@H](CCCNC(=N)N)C(=O)NCCCC[C@H](NC(=O)[C@H](CCCNC(=N)N)NC(=O)[C@H](CCCNC(=N)N)NC(=O)CNC(=O)CNC(=O)[C@H](CCCCN)NC(=O)[C@H](CCCNC(=N)N)NC(=O)CNC(=O)[C@H](CCCNC(=N)N)NC(=O)CCC)C(=O)N[C@@H](CCCCN)C(=O)O [Peptide C4-G2D, (C3H7—CO—NH—RGRKGGRR)2KK] (I: Butyryl-RGRKGGRRKK-OH / II: Butyryl-RGRKGGRR; amide I:9-II:C; N-terminus and C-terminus assumed) | 5.52 (≈ 12.5 µg/mL) | 2.76 (≈ 6.25 µg/mL) | 5.39 (≈ 12.2 µg/mL) | 5.52 (≈ 12.5 µg/mL) |  |  | 
CCCCCCCCCCCC(=O)N[C@@H](CCCNC(=N)N)C(=O)NCC(=O)N[C@@H](CCCNC(=N)N)C(=O)N[C@@H](CCCCN)C(=O)N[C@H](C(=O)N[C@H](C(=O)N[C@@H](CCCNC(=N)N)C(=O)N[C@@H](CCCNC(=N)N)C(=O)NCCCC[C@H](NC(=O)[C@H](CCCNC(=N)N)NC(=O)[C@H](CCCNC(=N)N)NC(=O)[C@@H](NC(=O)[C@@H](NC(=O)[C@H](CCCCN)NC(=O)[C@H](CCCNC(=N)N)NC(=O)CNC(=O)[C@H](CCCNC(=N)N)NC(=O)CCCCCCCCCCC)C(C)C)C(C)C)C(=O)N[C@@H](CCCCN)C(=O)O)C(C)C)C(C)C [Peptide C12-V2D, (C11H23—CO—NH—RGRKVVRR)2KK] (I: Lauroyl-RGRKVVRRKK-OH / II: Lauroyl-RGRKVVRR; amide I:9-II:C) | 4.71 (≈ 12.5 µg/mL) | 4.71 (≈ 12.5 µg/mL) | 4.71 (≈ 12.5 µg/mL) | 4.71 (≈ 12.5 µg/mL) | 4.71 (≈ 12.5 µg/mL) | 542.8 ± 53.0 | 
CC(=O)N[C@@H](CCCNC(=N)N)C(=O)NCC(=O)N[C@@H](CCCNC(=N)N)C(=O)N[C@@H](CCCCN)C(=O)NCC(=O)NCC(=O)N[C@@H](CCCNC(=N)N)C(=O)N[C@@H](CCCNC(=N)N)C(=O)NCCCC[C@H](NC(=O)[C@H](CCCNC(=N)N)NC(=O)[C@H](CCCNC(=N)N)NC(=O)CNC(=O)CNC(=O)[C@H](CCCCN)NC(=O)[C@H](CCCNC(=N)N)NC(=O)CNC(=O)[C@H](CCCNC(=N)N)NC(C)=O)C(=O)N[C@@H](CCCCN)C(=O)O [Peptide C2-G2D, (CH3—CO—NH—RGRKGGRR)2KK] (I: Ac-RGRKGGRRKK-OH / II: Ac-RGRKGGRR; amide I:9-II:C; N-terminus and C-terminus assumed) | 5.66 (≈ 12.5 µg/mL) | 2.83 (≈ 6.24 µg/mL) | 5.52 (≈ 12.2 µg/mL) | 5.66 (≈ 12.5 µg/mL) |  |  | 
CCCCCCCCCCCC(=O)N[C@@H](CCCNC(=N)N)C(=O)NCC(=O)N[C@@H](CCCNC(=N)N)C(=O)N[C@@H](CCCCN)C(=O)NCC(=O)NCC(=O)N[C@@H](CCCNC(=N)N)C(=O)N[C@@H](CCCNC(=N)N)C(=O)NCCCC[C@H](NC(=O)[C@H](CCCNC(=N)N)NC(=O)[C@H](CCCNC(=N)N)NC(=O)CNC(=O)CNC(=O)[C@H](CCCCN)NC(=O)[C@H](CCCNC(=N)N)NC(=O)CNC(=O)[C@H](CCCNC(=N)N)NC(=O)CCCCCCCCCCC)C(=O)N[C@@H](CCCCN)C(=O)O [Peptide C12-G2D, (C11H23—CO—NH—RGRKGGRR)2KK] (I: Lauroyl-RGRKGGRRKK-OH / II: Lauroyl-RGRKGGRR; amide I:9-II:C; N-terminus and C-terminus assumed) | 40.21 (≈ 100 µg/mL) | >40.21 | >40.21 | 40.21 (≈ 100 µg/mL) |  |  | 
CCCC(=O)N[C@@H](CCCNC(=N)N)C(=O)NCC(=O)N[C@@H](CCCNC(=N)N)C(=O)N[C@@H](CCCCN)C(=O)N[C@H](C(=O)N[C@H](C(=O)N[C@@H](CCCNC(=N)N)C(=O)N[C@@H](CCCNC(=N)N)C(=O)NCCCC[C@H](NC(=O)[C@H](CCCNC(=N)N)NC(=O)[C@H](CCCNC(=N)N)NC(=O)[C@@H](NC(=O)[C@@H](NC(=O)[C@H](CCCCN)NC(=O)[C@H](CCCNC(=N)N)NC(=O)CNC(=O)[C@H](CCCNC(=N)N)NC(=O)CCC)C(C)C)C(C)C)C(=O)N[C@@H](CCCCN)C(=O)O)C(C)C)C(C)C [Peptide C4-V2D, (C3H7—CO—NH—RGRKVVRR)2KK] (I: Butyryl-RGRKVVRRKK-OH / II: Butyryl-RGRKVVRR; amide I:9-II:C) | 2.57 (≈ 6.25 µg/mL) | 10.28 (≈ 25 µg/mL) | 2.57 (≈ 6.25 µg/mL) | 5.14 (≈ 12.5 µg/mL) | 2.57 (≈ 6.25 µg/mL) |  | >2000
CC(=O)N[C@@H](CCCNC(=N)N)C(=O)NCC(=O)N[C@@H](CCCNC(=N)N)C(=O)N[C@@H](CCCCN)C(=O)N[C@H](C(=O)N[C@H](C(=O)N[C@@H](CCCNC(=N)N)C(=O)N[C@@H](CCCNC(=N)N)C(=O)NCCCC[C@H](NC(=O)[C@H](CCCNC(=N)N)NC(=O)[C@H](CCCNC(=N)N)NC(=O)[C@@H](NC(=O)[C@@H](NC(=O)[C@H](CCCCN)NC(=O)[C@H](CCCNC(=N)N)NC(=O)CNC(=O)[C@H](CCCNC(=N)N)NC(C)=O)C(C)C)C(C)C)C(=O)N[C@@H](CCCCN)C(=O)O)C(C)C)C(C)C [Peptide C2-V2D, (CH3—CO—NH—RGRKVVRR)2KK] (I: Ac-RGRKVVRRKK-OH / II: Ac-RGRKVVRR; amide I:9-II:C) | 2.63 (≈ 6.25 µg/mL) | 5.26 (≈ 12.5 µg/mL) | 5.26 (≈ 12.5 µg/mL) | 5.26 (≈ 12.5 µg/mL) | 2.63 (≈ 6.25 µg/mL) |  | >2000
CCCCCCCC(=O)N[C@@H](CCCNC(=N)N)C(=O)NCC(=O)N[C@@H](CCCNC(=N)N)C(=O)N[C@@H](CCCCN)C(=O)NCC(=O)NCC(=O)N[C@@H](CCCNC(=N)N)C(=O)N[C@@H](CCCNC(=N)N)C(=O)NCCCC[C@H](NC(=O)[C@H](CCCNC(=N)N)NC(=O)[C@H](CCCNC(=N)N)NC(=O)CNC(=O)CNC(=O)[C@H](CCCCN)NC(=O)[C@H](CCCNC(=N)N)NC(=O)CNC(=O)[C@H](CCCNC(=N)N)NC(=O)CCCCCCC)C(=O)N[C@@H](CCCCN)C(=O)O [Peptide C8-G2D, (C7H15—CO—NH—RGRKGGRR)2KK] (I: Octanoyl-RGRKGGRRKK-OH / II: Octanoyl-RGRKGGRR; amide I:9-II:C; N-terminus and C-terminus assumed) | 2.63 (≈ 6.25 µg/mL) | 2.63 (≈ 6.25 µg/mL) | 2.57 (≈ 6.1 µg/mL) | 2.63 (≈ 6.25 µg/mL) |  |  | 
CCCCCC(=O)N[C@@H](CCCNC(=N)N)C(=O)NCC(=O)N[C@@H](CCCNC(=N)N)C(=O)N[C@@H](CCCCN)C(=O)NCC(=O)NCC(=O)N[C@@H](CCCNC(=N)N)C(=O)N[C@@H](CCCNC(=N)N)C(=O)NCCCC[C@H](NC(=O)[C@H](CCCNC(=N)N)NC(=O)[C@H](CCCNC(=N)N)NC(=O)CNC(=O)CNC(=O)[C@H](CCCCN)NC(=O)[C@H](CCCNC(=N)N)NC(=O)CNC(=O)[C@H](CCCNC(=N)N)NC(=O)CCCCC)C(=O)N[C@@H](CCCCN)C(=O)O [Peptide C6-G2D, (C5H11—CO—NH—RGRKGGRR)2KK] (I: Hexanoyl-RGRKGGRRKK-OH / II: Hexanoyl-RGRKGGRR; amide I:9-II:C; N-terminus and C-terminus assumed) | 2.70 (≈ 6.26 µg/mL) | 5.39 (≈ 12.5 µg/mL) | 5.26 (≈ 12.2 µg/mL) | 2.70 (≈ 6.26 µg/mL) |  |  | 
